Values joined by “and” are separate entries in the source; they are usually repeats but may differ in a detail not shown here. Equal values may be shown once. Read-outs that look alike come from different tables or passages of the source.
Key:
SARS-CoV-2 Delta variant [1] = type: in vivo, K18-hACE2 mice; conditions: for lung virus titers in plaque assays: ATV006 250 or 100 mg/kg, EIDD-2801 500 mg/kg
[2] = tested on: SARS-CoV-2 (Omicron, B.1.1.529)
[3] = tested on: SARS-CoV-2 (Delta, B.1.617.2); assay: microbe, parasite or virus in culture; type: cell-based
SARS-CoV-2 Delta variant [4] = type: in vivo, K18-hACE2 mice; conditions: for % Initial weight / nucleocapsid gRNA copies/ μL / Log10 (FFU/g): individual animals; for % Initial weight: Fig.6B; for nucleocapsid gRNA copies/ μL: Fig.6C; for Log10 (FFU/g): Fig.6D

SMILES: CC(C)C(=O)OC[C@H]1O[C@@H](n2ccc(NO)nc2=O)[C@H](O)[C@@H]1O [EIDD-2801, molnupiravir, reference compound]
- lung virus titers in plaque assays (SARS-CoV-2 Delta variant [1]; […]): below the limit of detection

SMILES: CC(C)C(=O)OC[C@H]1O[C@@](C#N)(c2ccc3c(N)ncnn23)[C@H](O)[C@@H]1O [ATV006]
- lung virus titers in plaque assays (SARS-CoV-2 Delta variant [1]; […]): below the limit of detection
- Ccl2 transcript, Vehicle/ATV006 fold change + standard error of the mean (SARS-CoV-2 Delta variant [1]; mouse, in vivo): 24.69±25.14
- Cxcl10 transcript, Vehicle/ATV006 fold change + standard error of the mean (SARS-CoV-2 Delta variant [1]; mouse, in vivo): 43.19±20.74
- Ifnb transcript, Vehicle/ATV006 fold change + standard error of the mean (SARS-CoV-2 Delta variant [1]; mouse, in vivo): 5.85±4.59
- Ifng transcript, Vehicle/ATV006 fold change + standard error of the mean (SARS-CoV-2 Delta variant [1]; mouse, in vivo): 25.56±17.77
- Il1β transcript, Vehicle/ATV006 fold change + standard error of the mean (SARS-CoV-2 Delta variant [1]; mouse, in vivo): 0.66±0.01
- Il6 transcript, Vehicle/ATV006 fold change + standard error of the mean (SARS-CoV-2 Delta variant [1]; mouse, in vivo): 3.14±2.37
- lung pathology (histopathology) (SARS-CoV-2 Delta variant [1]; mouse, in vivo): reduced evidence of lung pathology
- lung viral RNA compared to the control (SARS-CoV-2 Delta variant [1]; mouse, in vivo): significantly reducing viral RNA
- spike (S) protein of SARS-CoV-2 in lungs, immunohistochemistry (SARS-CoV-2 Delta variant [1]; mouse, in vivo): hardly detectable
- survival (SARS-CoV-2 Delta variant [1]; prophylactic dosing, orally once daily, […]): prevent the death
- fold potency improvement [2]: > 12 fold
- therapeutic index (CC50/EC50) [2]: 1207.55
- fold potency improvement [3]: > 4 fold
- % Initial weight (SARS-CoV-2 Delta variant [4]; 10mg/kg, 0d): 100%
- % Initial weight (SARS-CoV-2 Delta variant [4]; 10mg/kg, 1d): 101.648% and 100.759% and 96.0784% and 96.7539% and 101.529%
- % Initial weight (SARS-CoV-2 Delta variant [4]; 10mg/kg, 2d): 101.923% and 99.2405% and 97.0588% and 94.7644% and 103.824%
- % Initial weight (SARS-CoV-2 Delta variant [4]; 10mg/kg, 3d): 98.9011% and 98.7342% and 96.5686% and 95.0262% and 104.706%
- nucleocapsid gRNA copies/ μL (SARS-CoV-2 Delta variant [4]; 10mg/kg): 146414 copies/ μL and 275440 copies/ μL and 232362 copies/ μL and 312910 copies/ μL and 80285.6 copies/ μL
- % Initial weight (SARS-CoV-2 Delta variant [4]; 30mg/kg, 0d): 100%
- % Initial weight (SARS-CoV-2 Delta variant [4]; 30mg/kg, 1d): 102.538% and 104.147% and 99.7354% and 98.4143% and 100.606%
- % Initial weight (SARS-CoV-2 Delta variant [4]; 30mg/kg, 2d): 101.015% and 104.987% and 97.619% and 97.6982% and 97.3539%
- % Initial weight (SARS-CoV-2 Delta variant [4]; 30mg/kg, 3d): 101.777% and 105.249% and 100% and 99.7442% and 101.433%
- nucleocapsid gRNA copies/ μL (SARS-CoV-2 Delta variant [4]; 30mg/kg): 13248.7 copies/ μL and 53687.7 copies/ μL and 90173.6 copies/ μL and 4602.2 copies/ μL and 1089.53 copies/ μL
- Log10 (FFU/g) (SARS-CoV-2 Delta variant [4]; 30mg/kg): 285 FFU/g and 11142.9 FFU/g and 1428.57 FFU/g
- % Initial weight (SARS-CoV-2 Delta variant [4]; 80mg/kg, 0d): 100%
- % Initial weight (SARS-CoV-2 Delta variant [4]; 80mg/kg, 1d): 98.0198% and 99.4949% and 101.272% and 98.5163% and 99.5238%
- % Initial weight (SARS-CoV-2 Delta variant [4]; 80mg/kg, 2d): 101.98% and 95.9596% and 100% and 98.635% and 104.762%
- % Initial weight (SARS-CoV-2 Delta variant [4]; 80mg/kg, 3d): 103.96% and 97.3232% and 99.6438% and 102.077% and 105.357%
- nucleocapsid gRNA copies/ μL (SARS-CoV-2 Delta variant [4]; 80mg/kg): 1775.52 copies/ μL and 4114.3 copies/ μL and 2639.93 copies/ μL and 10494.5 copies/ μL and 13845.3 copies/ μL
- Log10 (FFU/g) (SARS-CoV-2 Delta variant [4]; 80mg/kg): 285 FFU/g
- % Initial weight (SARS-CoV-2 Delta variant [4]; 150mg/kg, 0d): 100%
- % Initial weight (SARS-CoV-2 Delta variant [4]; 150mg/kg, 1d): 98.25% and 98.7147% and 97.1922% and 101.765% and 97.8241%
- % Initial weight (SARS-CoV-2 Delta variant [4]; 150mg/kg, 2d): 98.35% and 100% and 98.2721% and 105.229% and 95.8333%
- % Initial weight (SARS-CoV-2 Delta variant [4]; 150mg/kg, 3d): 97.75% and 97.4293% and 97.1922% and 107.516% and 97.4537%
- nucleocapsid gRNA copies/ μL (SARS-CoV-2 Delta variant [4]; 150mg/kg): 3137.57 copies/ μL and 1055.82 copies/ μL and 1750.74 copies/ μL and 2116.43 copies/ μL and 8855.34 copies/ μL
- Log10 (FFU/g) (SARS-CoV-2 Delta variant [4]; 150mg/kg): 285 FFU/g
- Viral titer in lungs (SARS-CoV-2 Delta variant [4]; mouse, in vivo): reduced below the detection limit
- lung histopathology (SARS-CoV-2 Delta variant [4]; mouse, in vivo): alleviated the symptoms in the lungs
- viral load in the lungs (SARS-CoV-2 Delta variant [4]; mouse, in vivo): reduced viral load in the lungs

SMILES: N#C[C@@]1(c2ccc3c(N)ncnn23)O[C@H](CO)[C@@H](O)[C@H]1O [GS-441524, reference compound]
- nucleocapsid gRNA copies/ μL (SARS-CoV-2 Delta variant [4]; 80mg/kg): 3072139 copies/ μL and 3630875 copies/ μL and 3484205 copies/ μL and 3410466 copies/ μL and 4171196 copies/ μL
- Log10 (FFU/g) (SARS-CoV-2 Delta variant [4]; 80mg/kg): 488571 FFU/g and 702857 FFU/g and 351429 FFU/g and 720000 FFU/g and 531429 FFU/g
- nucleocapsid gRNA copies/ μL (SARS-CoV-2 Delta variant [4]; 150mg/kg): 3129847 copies/ μL and 270812 copies/ μL and 4369083 copies/ μL and 2646326 copies/ μL and 9650757 copies/ μL
- Log10 (FFU/g) (SARS-CoV-2 Delta variant [4]; 150mg/kg): 342857 FFU/g and 368571 FFU/g and 531429 FFU/g and 360000 FFU/g and 420000 FFU/g
- Viral titer in lungs (SARS-CoV-2 Delta variant [4]; mouse, in vivo): did not inhibit virus replication
- lung histopathology (SARS-CoV-2 Delta variant [4]; mouse, in vivo): multiple sites of injury and inflammatory cell infiltration

Source: publication PMC9161374 (Science Translational Medicine, 2022)
